Assay results taken from patent US20250000865A1, “COMPOUND FOR REDUCING URIC ACID LEVELS” (NEWSOARA BIOPHARMA CO., LTD., priority 2021, published 2025).

Test system: healthy subjects
Assay: Phase I clinical trial, multiple-dose groups (once a day, 7 consecutive days): uric acid index before and after treatment
Assay type: in vivo, human
Conditions: for Uric acid (UA) Mean (standard deviation) / Uric acid (UA) Median / Uric acid (UA) Minimum value / Uric acid (UA) maximum value / Uric acid (UA) Changes over baseline at last visit (on day 14), Mean (standard deviation) / Uric acid (UA) Changes over baseline at last visit (on day 14), Median / Uric acid (UA) Changes over baseline at last visit (on day 14), Minimum value / Uric acid (UA) Changes over baseline at last visit (on day 14), maximum value / Uric acid (UA) Changes over baseline on day 2, Mean (standard deviation) / Uric acid (UA) Changes over baseline on day 2, Median / Uric acid (UA) Changes over baseline on day 2, Minimum value / Uric acid (UA) Changes over baseline on day 2, maximum value / Uric acid (UA) Changes over baseline on day 11, Mean (standard deviation) / Uric acid (UA) Changes over baseline on day 11, Median / Uric acid (UA) Changes over baseline on day 11, Minimum value / Uric acid (UA) Changes over baseline on day 11, maximum value / Uric acid (UA) Changes over baseline on days 4-6, Mean (standard deviation) / Uric acid (UA) Changes over baseline on days 4-6, Median / Uric acid (UA) Changes over baseline on days 4-6, Minimum value / Uric acid (UA) Changes over baseline on days 4-6, maximum value: N = 9
Experimental: The changes of uric acid levels in subjects in single-dose and multi-dose groups of Compound I are shown in FIG. 1A (single dose of 6 mg and single dose of 10 mg), FIG. 1B (single dose of 20 mg and single dose of 30 mg), and FIG. 2 (multi-dose of 10 mg and multi-dose of 20 mg). The corresponding results are also shown in Tables 1.1, 1.2, 1.3, and 2.1, and tables 2.2, 2.3, and 2.4.

[1] = Baseline, multiple dose 10 mg once a day 7 days
[2] = Baseline, multiple dose 20 mg once a day 7 days
[3] = Day 2, multiple dose 10 mg once a day 7 days
[4] = Day 2, multiple dose 20 mg once a day 7 days
[5] = Day 11, multiple dose 10 mg once a day 7 days
[6] = Day 11, multiple dose 20 mg once a day 7 days
[7] = Days 4-6, multiple dose 10 mg once a day 7 days
[8] = Days 4-6, multiple dose 20 mg once a day 7 days
[9] = Last visit (day 14), multiple dose 10 mg once a day 7 days
[10] = Last visit (day 14), multiple dose 20 mg once a day 7 days
[11] = multiple dose 10 mg once a day 7 days
[12] = multiple dose 20 mg once a day 7 days

COc1cccc2c1ncc1c(=O)n(C3CCC(C(=O)O)CC3)c(=O)n(-c3cccc(Cl)c3)c12 (centres unmarked) [Compound I, 4-[1-(3-chlorophenyl)-7-methoxy-2,4-dioxo-pyrimido[5,4-c]quinolin-3-yl]cyclohexanecarboxylic acid]
Uric acid (UA) Mean (standard deviation) [1]: 314.4 (84.59) μmol/L | Uric acid (UA) Median [1]: 290.0 µmol/L | Uric acid (UA) Minimum value [1]: 215 µmol/L | Uric acid (UA) maximum value [1]: 452 µmol/L | Uric acid (UA) Mean (standard deviation) [2]: 337.2 (50.38) μmol/L | Uric acid (UA) Median [2]: 349.0 µmol/L | Uric acid (UA) Minimum value [2]: 259 µmol/L | Uric acid (UA) maximum value [2]: 400 µmol/L | Uric acid (UA) Mean (standard deviation) [3]: 254.9 (74.41) μmol/L | Uric acid (UA) Median [3]: 248.0 µmol/L | Uric acid (UA) Minimum value [3]: 155 µmol/L | Uric acid (UA) maximum value [3]: 397 µmol/L | Uric acid (UA) Mean (standard deviation) [4]: 221.6 (63.82) μmol/L | Uric acid (UA) Median [4]: 216.0 µmol/L | Uric acid (UA) Minimum value [4]: 142 µmol/L | Uric acid (UA) maximum value [4]: 373 µmol/L | Uric acid (UA) Mean (standard deviation) [5]: 325.1 (67.57) μmol/L | Uric acid (UA) Median [5]: 314.0 µmol/L | Uric acid (UA) Minimum value [5]: 222 µmol/L | Uric acid (UA) maximum value [5]: 439 µmol/L | Uric acid (UA) Mean (standard deviation) [6]: 341.8 (58.10) μmol/L | Uric acid (UA) Median [6]: 323.0 µmol/L | Uric acid (UA) Minimum value [6]: 262 µmol/L | Uric acid (UA) maximum value [6]: 460 µmol/L | Uric acid (UA) Mean (standard deviation) [7]: 201.8 (58.87) μmol/L | Uric acid (UA) Median [7]: 204.0 µmol/L | Uric acid (UA) Minimum value [7]: 119 µmol/L | Uric acid (UA) maximum value [7]: 307 µmol/L | Uric acid (UA) Mean (standard deviation) [8]: 158.0 (51.31) μmol/L | Uric acid (UA) Median [8]: 140.0 µmol/L | Uric acid (UA) Minimum value [8]: 105 µmol/L | Uric acid (UA) maximum value [8]: 267 µmol/L | Uric acid (UA) Mean (standard deviation) [9]: 326.9 (74.58) μmol/L | Uric acid (UA) Median [9]: 337.0 µmol/L | Uric acid (UA) Minimum value [9]: 219 µmol/L | Uric acid (UA) maximum value [9]: 422 µmol/L | Uric acid (UA) Mean (standard deviation) [10]: 378.4 (37.55) μmol/L | Uric acid (UA) Median [10]: 376.0 µmol/L | Uric acid (UA) Minimum value [10]: 309 µmol/L | Uric acid (UA) maximum value [10]: 440 µmol/L | uric acid level on the following days (days 4-6) (multi-dose groups): continuous decrease | uric acid level the next day after administration (multi-dose groups, certain dose dependence): decreases obviously | Uric acid (UA) Changes over baseline at last visit (on day 14), Mean (standard deviation) [11]: 12.4 (37.22) μmol/L | Uric acid (UA) Changes over baseline at last visit (on day 14), Median [11]: 6.0 µmol/L | Uric acid (UA) Changes over baseline at last visit (on day 14), Minimum value [11]: -45 µmol/L | Uric acid (UA) Changes over baseline at last visit (on day 14), maximum value [11]: 58 µmol/L | Uric acid (UA) Changes over baseline on day 2, Mean (standard deviation) [11]: −59.6 (40.77) μmol/L | Uric acid (UA) Changes over baseline on day 2, Median [11]: -50.0 µmol/L | Uric acid (UA) Changes over baseline on day 2, Minimum value [11]: -135 µmol/L | Uric acid (UA) Changes over baseline on day 2, maximum value [11]: 6 µmol/L | Uric acid (UA) Changes over baseline on day 11, Mean (standard deviation) [11]: 10.7 (31.86) μmol/L | Uric acid (UA) Changes over baseline on day 11, Median [11]: 15.0 µmol/L | Uric acid (UA) Changes over baseline on day 11, Minimum value [11]: -52 µmol/L | Uric acid (UA) Changes over baseline on day 11, maximum value [11]: 60 µmol/L | Uric acid (UA) Changes over baseline on days 4-6, Mean (standard deviation) [11]: −112.7 (57.68) μmol/L | Uric acid (UA) Changes over baseline on days 4-6, Median [11]: -118.0 µmol/L | Uric acid (UA) Changes over baseline on days 4-6, Minimum value [11]: -234 µmol/L | Uric acid (UA) Changes over baseline on days 4-6, maximum value [11]: -35 µmol/L | Uric acid (UA) Changes over baseline at last visit (on day 14), Mean (standard deviation) [12]: 41.2 (44.32) μmol/L | Uric acid (UA) Changes over baseline at last visit (on day 14), Median [12]: 40.0 µmol/L | Uric acid (UA) Changes over baseline at last visit (on day 14), Minimum value [12]: -11 µmol/L | Uric acid (UA) Changes over baseline at last visit (on day 14), maximum value [12]: 135 µmol/L | Uric acid (UA) Changes over baseline on day 2, Mean (standard deviation) [12]: −115.7 (55.40) μmol/L | Uric acid (UA) Changes over baseline on day 2, Median [12]: -142.0 µmol/L | Uric acid (UA) Changes over baseline on day 2, Minimum value [12]: -184 µmol/L | Uric acid (UA) Changes over baseline on day 2, maximum value [12]: -26 µmol/L | Uric acid (UA) Changes over baseline on day 11, Mean (standard deviation) [12]: 4.6 (43.38) μmol/L | Uric acid (UA) Changes over baseline on day 11, Median [12]: 2.0 µmol/L | Uric acid (UA) Changes over baseline on day 11, Minimum value [12]: -52 µmol/L | Uric acid (UA) Changes over baseline on day 11, maximum value [12]: 67 µmol/L | Uric acid (UA) Changes over baseline on days 4-6, Mean (standard deviation) [12]: −179.2 (54.55) μmol/L | Uric acid (UA) Changes over baseline on days 4-6, Median [12]: -175.0 µmol/L | Uric acid (UA) Changes over baseline on days 4-6, Minimum value [12]: -260 µmol/L | Uric acid (UA) Changes over baseline on days 4-6, maximum value [12]: -108 µmol/L
